Tests used:
[1] = test system: Aβ25-35-treated primary cortical neurons; test: Cortical neuron survival assay with amyloid-beta peptide insult (MTT); assay type: cell-based, rat; conditions: 50 μM, except GAG-C69 at 30 μM; Aβ25-35 10 μM (FIG. 19)
Procedure: FIG. 4. […] After overnight incubation, the MTT assay was performed. Cell survival was calculated as a percentage compared to vehicle control (“CTL no Abeta”).
Exogenous addition of amyloid beta peptide (Aβ) initiates cell death of neuronal cultures via apoptosis.
(§1) The cells were then incubated with test samples and amyloid-beta peptide fragment 25-35 (Aβ, 10 μM, Sigma) in growth medium. A tetrazole, 3-(4,5-Dimethylthiazol-2-yl)-2,5-diphenyltetrazolium bromide (MTT, 5 mg/ml) was added to the medium at a ratio of 1:10 after 24-hr incubation. MTT is reduced by living cells into purple formazan and further solubilized in 20% SDS solution; therefore, the colored solution was measured by spectrophotometer and cell viability was quantified.

[2] = test system: NMDA receptor-induced excitotoxicity in primary cortical neuronal cells; test: NMDA survival assay (LDH release); conditions: 30-50 μM pre-treated 2 hours, NMDA 20 min (FIG. 17)
Procedure: Embryonic rat cortical neurons (11 DIV) were pre-treated with various concentrations of AG—0 (0.1 -30 μg/mL) and then co-incubated with NMDA (20 μM). After 20 min, the medium was replaced with fresh medium, and after overnight incubation lactate dehydrogenase (LDH) released into the medium was measured. Cell death was calculated as a percentage compared to solvent control (“CTL without NMDA”). Assays were conducted in duplicate and repeated at least twice. *=P<0.05.
Cortical neurons were plated on 48-well plate (Nunc) at a density of 1.1×10^5 cells per well and cultured for 11-12 days (11-12 DIV). Neurons were pre-treated with the test compounds for 2 hours prior to N-Methyl-D-Aspartate (NMDA, Sigma) or glutamate (MSG, Sigma) treatment. Briefly, the neurons were rinsed with Locke's solution (5 mM potassium chloride, 128 mM sodium chloride, 2.7 mM calcium chloride, 1 mM di-sodium hydrogen orthophosphate, 5 mM HEPES and 10 mM glucose in Milli-Q water) without Mg^2+, followed by incubation in Locke's solution with addition of glycine (0.1 μM) for 15 minutes. After the incubation, the neurons were co-treated with the test compound (dissolved in Locke's plus glycine solution) and NMDA (20 μM) or glutamate for 20 min. Neurons were then rinsed with Locke's solution containing Mg^2+ and replaced with fresh growth medium. Cell death was assayed and quantified using the lactate dehydrogenase release assay (Cytotoxicity Detection Kit, Roche). Data was compared to a DMSO vehicle control and represented in mean±SEM. The student t-test was used for statistical analysis.

[3] = test system: rat cortical neurons cultured in the absence of B27; test: Cortical neuron survival assay with B27 withdrawal (MTT); assay type: cell-based; conditions: for cell survival of cortical neurons in the absence of B27 (MTT): 30 μM, pre-treated 24 hours (FIG. 15); for concentration showing neuroprotective effect in the absence of B27 (MTT): primary cortical neurons 7DIV, dose-dependent study 1-30 μM
Procedure: FIG. 2. Adelostemma gracillimum refined fraction promotes rat cortical neuron survival against B27 withdrawal. Cortical neurons isolated from embryonic day 18 rats were cultured in Neurobasal medium supplemented with 2 % B27. […] A MTT assay was performed 24 hours later. Cell survival is presented as a percentage compared to a DMSO control in the presence of B27 (“CTL with B27”). Assays were conducted in triplicate and repeated at least twice. *=P<0.05.
Primary cortical neurons were cultured in Neurobasal medium and supplemented with B27, a proprietary formula of Life Technologies. The combination of Neurobasal medium and B27 provides a stable growth environment for primary neurons to maturity in vitro. Neurons undergo apoptosis or cell death in the absence of B27. To study the neuroprotective effect of Adelostemma gracillimum refined fraction, neurons of 7DIV were treated with AG-0 and cell survival was measured as mitochondrial activity by the MTT assay.
as §1, with “washed with Hanks' solution twice and replaced” for “incubated”, “that were serial diluted” for “and amyloid-beta peptide fragment 25-35 (Aβ, 10 μM, Sigma)”, “Neurobasal” for “growth”, “a 2-day” for “24-hr”

[4] = test system: cyclic AMP response (CRE) element; test: CRE-dependent transcription assay (luciferase); assay type: cell-based, rat; conditions: hippocampal neurons 12DIV, 50 μM, 6 hours
Procedure: FIG. 41. GAG compounds enhance CRE-dependent transcription activity. GAG-C14 (a), GAG-C53 (b), GAG-C63 (c), GAG-C69 (d), GAG-C84 (e), GAG-C111 (f), GAG-C122 (g), GAG-C123 (h), and GAG-C129 (i) induce CRE-dependent transcriptional activity in cultured hippocampal neurons. On the day of cell seeding, hippocampal neurons were transfected with a firefly luciferase reporter plasmid containing cyclic AMP response (CRE)-element. The cells at 12 DIV were then treated with 50 μM of AG compounds for 6 hours. Data are mean±SEM (n=3-4), *=P<0.05, **=P<0.01, and ***=P<0.005 versus vehicle-treated cells (0 μM), student's t test.
Cultured hippocampal neurons were transfected with a firefly luciferase reporter plasmid containing a cyclic AMP response (CRE) element. At 12DIV, the cells were treated with 50 μM of compound for 6 hours, then CRE-dependent transcription activity was assayed by measuring luciferase levels.
Freshly isolated embryonic cortical neurons were transfected with a luciferase reporter gene (Cre-Luc) linked to CREB activation following the ACM lipofectamine method using Lipofectamine 2000, a cationic liposome based reagent (Invitrogen). […] Transfection was performed using 1 μL Lipofectamine 2000 and 0.4 μg DNA per well. Neurons were then treated with test samples for time periods of 6 hours. After treatment, the cells were washed with ice-cold DPBS and 100 μL of 1× luciferase lysis buffer (Promega) was added. The plates were placed in −20° C. to freeze the cells, after which they were thawed to facilitate lysis. The lysates were transferred onto white bottom plates and assayed for renilla luciferase using the luciferase assay kit (Promega). Increased CREB activation in the neurons leads to an enhanced luciferase production and this was quantified using a Promega GloMax™ 96 microplate luminometer. […] BDNF and rolipram were used as positive controls.

[5] = test system: phosphorylated ERK, CREB, Akt, P38, MEK in cortical neurons; test: Western blot detection of signaling proteins in cortical neurons; assay type: cell-based, rat; conditions: cortical neurons 7DIV

Row | Compound | cell survival of cortical neurons treated with Aβ25-35 (MTT) [1] | neuronal survival following NMDA treatment (LDH) [2] | further results
1 | 3-O-β-D-Cymaropyranose-(1→4)-β-D-Digitoxopyranose-12-trans-cinnamyl-20-acetyl-8,14-seco-sacrostin [GAG-C30] | promoted cell survival | – | –
2 | 12-O-cis/trans-cinnamoyl-20-acetyl-8,14-seco-sarcostin 3-O-β-D-Cymaropyranosyl-(1→4)-β-D-Cymaropyranosyl-(1→4)-β-D-Digitoxopyranosyl-(1→4)-β-D-Cymaropyranosyl-(1→4)-β-D-Oleandropyranoside [GAG-C104] | promoted cell survival | promoted neuronal survival | –
3 | 12-O-cis/trans-cinnamoyl-20-acetyl-8,14-seco-sarcostin 3-O-β-D-Cymaropyranosyl-(1→4)-β-D-Cymaropyranosyl-(1→4)-β-D-Oleandropyranosyl-(1→4)-β-D-Oleandropyranoside [GAG-C96] | – | promoted neuronal survival | –
4 | 12-O-cis/trans-cinnamoyl-20-acetyl-8,14-seco-sarcostin 3-O-β-D-Cymaropyranosyl-(1→4)-β-D-Digitoxopyranosyl-(1→4)-β-D-Oleandropyranosyl-(1→4)-β-D-Oleandropyranoside [GAG-C102] | – | promoted neuronal survival | –
5 | 12-O-cis/trans-cinnamoyl-20-acetyl-8,14-seco-sarcostin 3-O-β-D-Cymaropyranosyl-(1→4)-β-D-Oleandropyranosyl-(1→4)-O-D-Oleandropyranoside [GAG-C90] | – | promoted neuronal survival | –
6 | 12-O-cis/trans-cinnamoylsacrostin 3-O-β-D-Cymaropyranosyl-(1→4)-β-D-Oleandropyranosyl-(1→4)-β-D-Oleandropyranoside [GAG-C86] | – | promoted neuronal survival | –
7 | C/C=C/c1ccc(OC(C)C(O)c2ccc(O)c(O)c2)c(OC)c1 (stereo not shown) [GAG-C13, 3,4,7-trihydroxyl-3′-methoxy-(7′E)-(8-O-4′)-neolignan-7′-en] | promoted cell survival | promoted neuronal survival | cell survival of cortical neurons in the absence of B27 (MTT) [3]: promoted cell survival
8 | COc1cc(C2Oc3c(OC)ccc(C(C)=O)c3C2C)ccc1O (stereo not shown) [GAG-C51, 3-methoxyl-4,4′-dihydroxy-1″-athanone-3′7-epoxy-8,2″-neolignane] | – | promoted neuronal survival | –
9 | C/C=C/c1cc(O)c(OC(C)C(O)c2cc(OC)c(O)c(OC)c2)c(OC)c1 (stereo not shown) [GAG-C59, 4,5′,7-trihydroxy-3, 3′,5-trimethyoxyl-hydroxy-(7′E)-(8-O-4)-neolignan-7′ en] | promoted cell survival | – | –
10 | COc1cc(C2c3cc(OC)c(O)cc3C3Oc4c(C(C)=O)ccc(O)c4CC3C2CO)ccc1O (stereo not shown) [GAG-C61, 4-hydroxy-3′-methoxy-(7′E)-5′7-epoxy-8,4′-oxyneolignane-7′ en] | – | promoted neuronal survival | –
11 | C[C@]12CC[C@H]3[C@@H](C=CC4=CC(=O)CC[C@@]43C)[C@@H]1CC(C(=O)O)C2 (stereo partly shown) [GAG-C63, 4,6-diene-16-carboxylic acid-3-oxo-androstane] | – | – | CRE-dependent transcription activity (luciferase) [4]: enhances CRE-dependent transcription
12 | CC1CC(C)(C)C2C=C(CC/C=C/C1=O)C(=O)O2 (stereo not shown) [GAG-C65, 8-oxohumula-2, 6(E)-dien-1,12-olide] | – | promoted neuronal survival | –
13 | COc1cc([C@@H]2c3cc(OC)c(O)cc3C=C(C)[C@H]2C)ccc1O [GAG-C70, (7′α,8′β)-4,4′-dihydroxyl-3,3′-dimethyoxyl-6,7′-cycloligane-7-en] | promoted cell survival | promoted neuronal survival | ERK phosphorylation ([5]; 0.1-10 μM, 15 min (FIGS. 16, 18, 20)): induced ERK phosphorylation
14 | CC1(C)CC[C@@]2(C(=O)O)CC[C@]3(C)C(=CCC4[C@@]5(C)CCC(O)C(C)(CO)C5CC[C@]43C)C2C1 (stereo partly drawn) [GAG-C74, 3β,23-dihydroxyolean-12-en-28-oic acid] | promoted cell survival | – | –
15 | COc1cc(C)cc(C(O)C(O)c2cc(C)ccc2OC)c1 (stereo not shown) [GAG-C80, 2-(2-methoxy-5-methylphenyl)-1-(3-methoxy-5-methylphenyl)-ethane-1,2-diol] | – | – | cell survival of cortical neurons in the absence of B27 (MTT) [3]: promoted cell survival; concentration showing neuroprotective effect in the absence of B27 (MTT) [3]: 10 to 30 µM
16 | CC(C)=CCOc1c2occc2cc2ccc(=O)oc12 [GAG-C81, 8-(3-methylbut-2-enyloxy)-psoralen] | – | – | cell survival of cortical neurons in the absence of B27 (MTT) [3]: promoted cell survival; neuroprotective effect in the absence of B27 (MTT) ([3]; 1-50 μM): exhibited neuroprotective effects in a dose-dependent manner
17 | COc1c2ccoc2c(OCC=C(C)C)c2oc(=O)ccc12 [GAG-C82, 8-(3-methylbut-2-enyloxy)-5-methoxyl-psoralen] | – | – | cell survival of cortical neurons in the absence of B27 (MTT) [3]: promoted cell survival
18 | COC1CC(OC2C(C)CC(OC3C(C)OC(OC4CC[C@@]5(C)C(=CC[C@]6(O)C5C[C@@H](OC(=O)C=Cc5ccccc5)[C@@]5(C)[C@]6(O)CC[C@@]5(O)C(C)=O)C4)CC3OC)CC2OC)OC(C)C1O (stereo partly drawn) [GAG-C87, Ikemagenin 3-O-β-D-Cymaropyranosyl-(1→4)-β-D-Oleandropyranosyl-(1→4)-β-D-Oleandropyranoside] | – | promoted neuronal survival | –
19 | COC1CC(OC2C(C)OC(OC3C(C)OC(OC4C(C)OC(OC5CC[C@@]6(C)C(=CC[C@]7(O)C6C[C@@H](OC(=O)/C=C(\C)C(C)C)[C@@]6(C)[C@]7(O)CC[C@@]6(O)C(C)=O)C5)CC4OC)CC3OC)CC2OC)OC(C)C1O (stereo partly drawn) [GAG-C92, Caudatin 3-O-β-D-Cymaropyranosyl-(1→4)-β-D-Cymaropyranosyl-(1→4)-β-D-Oleandropyranosyl-(1→4)-β-D-Oleandropyranoside] | – | promoted neuronal survival | –
20 | C/C=C/c1ccc(OC(C)C(O)c2cc(OC)c(O)c(OC)c2)c(OC)c1 (stereo not shown) [GAG-C121, 3,3′,5-trimethoxy-4,7-dihydroxyl-(7′E)-(8-O-4′)-neolignan-7′en] | promoted cell survival | – | –
21 | (K)-methyl 15-hydroxy-15-methoxy-12-oxopentadec-13-enoate [GAG-C78] | – | – | cell survival of cortical neurons in the absence of B27 (MTT) [3]: promoted cell survival; concentration showing neuroprotective effect in the absence of B27 (MTT) [3]: 10 to 30 µM; ERK phosphorylation time course ([5]; 30 μM): significantly induced ERK phosphorylation in cortical neurons from 15 min and persistently to 180 min; CREB phosphorylation ([5]; 30 μM, 15 min of incubation): induced CREB phosphorylation
